Source: patent publication US10092570B2 (Incyte Corporation, priority 2011, dated 2018)

What follows are compounds tested against PI3Kδ (p110δ/p85α) (Homo sapiens (Human), UniProt O00329) (assay: Example A3: PI3Kδ scintillation proximity assay). Details: scintillation proximity assay, 20 μM ATP, 4 nM PI3Kδ; read-out: PI3Kδ SPA IC50.
Type: biochemical
Summary of the method: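 p110δ/p85α (4 nM) phosphorylated 20 μM PIP2 with 20 μM ATP plus [γ-33P]ATP in MOPS pH 6.7, MgCl2, DTT, CHAPS, 0.5% DMSO, at RT. Stopped with EDTA/excess ATP, product captured on WGA SPA beads overnight and counted; IC50 from percent control activity versus log inhibitor.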

Sequence of PI3Kδ (p110δ/p85α) (O00329 whole entry): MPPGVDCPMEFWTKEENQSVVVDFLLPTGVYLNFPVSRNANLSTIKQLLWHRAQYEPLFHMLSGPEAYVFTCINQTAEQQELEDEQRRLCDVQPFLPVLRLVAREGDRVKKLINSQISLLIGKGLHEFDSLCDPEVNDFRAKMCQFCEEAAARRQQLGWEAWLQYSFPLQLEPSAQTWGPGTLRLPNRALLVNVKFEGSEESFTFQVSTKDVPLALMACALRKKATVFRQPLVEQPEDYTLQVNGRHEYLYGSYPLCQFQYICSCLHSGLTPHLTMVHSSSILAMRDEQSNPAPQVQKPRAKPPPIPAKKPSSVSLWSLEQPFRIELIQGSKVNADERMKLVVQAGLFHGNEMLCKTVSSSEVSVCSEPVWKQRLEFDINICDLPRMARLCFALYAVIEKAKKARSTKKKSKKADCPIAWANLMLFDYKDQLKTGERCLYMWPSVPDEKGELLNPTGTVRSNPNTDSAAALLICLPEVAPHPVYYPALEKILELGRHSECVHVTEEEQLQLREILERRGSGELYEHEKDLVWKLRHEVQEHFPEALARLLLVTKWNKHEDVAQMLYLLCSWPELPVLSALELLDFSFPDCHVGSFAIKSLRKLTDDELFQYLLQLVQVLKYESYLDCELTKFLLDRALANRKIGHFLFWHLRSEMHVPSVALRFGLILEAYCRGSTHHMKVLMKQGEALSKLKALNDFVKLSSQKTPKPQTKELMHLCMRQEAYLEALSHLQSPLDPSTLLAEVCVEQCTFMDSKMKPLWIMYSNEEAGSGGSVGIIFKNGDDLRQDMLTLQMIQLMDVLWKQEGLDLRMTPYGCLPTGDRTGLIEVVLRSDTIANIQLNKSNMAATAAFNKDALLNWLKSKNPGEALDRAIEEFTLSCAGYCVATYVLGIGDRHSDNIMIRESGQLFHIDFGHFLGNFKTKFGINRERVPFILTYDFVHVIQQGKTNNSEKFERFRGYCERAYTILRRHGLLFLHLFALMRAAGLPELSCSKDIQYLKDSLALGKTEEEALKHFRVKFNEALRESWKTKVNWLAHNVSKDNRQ
Sequence of PI3Kδ (p110δ/p85α) (P27986 whole entry partner): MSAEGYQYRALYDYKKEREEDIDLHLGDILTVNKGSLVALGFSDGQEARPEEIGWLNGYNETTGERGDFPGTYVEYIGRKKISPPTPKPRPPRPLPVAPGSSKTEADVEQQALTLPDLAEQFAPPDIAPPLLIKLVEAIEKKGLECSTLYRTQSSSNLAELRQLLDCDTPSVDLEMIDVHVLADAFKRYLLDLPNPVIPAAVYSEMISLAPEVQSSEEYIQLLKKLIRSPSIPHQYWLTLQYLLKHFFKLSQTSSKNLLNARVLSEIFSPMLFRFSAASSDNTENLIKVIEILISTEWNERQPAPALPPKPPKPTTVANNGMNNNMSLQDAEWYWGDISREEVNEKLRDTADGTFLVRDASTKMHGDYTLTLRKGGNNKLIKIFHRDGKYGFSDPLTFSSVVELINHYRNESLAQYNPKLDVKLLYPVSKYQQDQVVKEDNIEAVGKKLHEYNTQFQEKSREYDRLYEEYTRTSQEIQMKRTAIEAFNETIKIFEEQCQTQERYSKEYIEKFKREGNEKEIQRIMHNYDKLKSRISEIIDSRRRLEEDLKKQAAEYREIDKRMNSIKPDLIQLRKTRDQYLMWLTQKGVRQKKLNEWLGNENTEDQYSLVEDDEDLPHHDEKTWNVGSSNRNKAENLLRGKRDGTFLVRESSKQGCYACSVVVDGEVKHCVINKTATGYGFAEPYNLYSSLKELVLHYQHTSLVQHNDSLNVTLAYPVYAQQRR

Compound	IC50
COc1c(C(C)n2nc(C)c3c(N)ncnc32)cc(Cl)c(C#N)c1C1CN(C(C)CO)C1 (single isomer, unassigned) [Example 273, 4-[1-(4-amino-3-methyl-1H-pyrazolo[3,4-d]pyrimidin-1-yl)ethyl]-6-chloro-2-[1-(2-hydroxy-1-methylethyl)azetidin-3-yl]-3-methoxybenzonitrile]	< 10 nM
CCN1CC(c2c(C)c(Cl)cc(C(C)n3nc(C)c4c(N)ncnc43)c2OC)C1 (racemic) [Example 6, 1-{1-[5-Chloro-3-(1-ethylazetidin-3-yl)-2-methoxy-4-methylphenyl]ethyl}-3-methyl-1H-pyrazolo[3,4-d]pyrimidin-4-amine]	< 10 nM
CCOc1c(C(C)n2cc(C)c3c(N)ncnc32)cc(Cl)c(C#N)c1C1CN(C(C)C)C1 (centres unmarked) [Example 307, 4-[1-(4-Amino-5-methyl-7H-pyrrolo[2,3-d]pyrimidin-7-yl)ethyl]-6-chloro-3-ethoxy-2-(1-isopropylazetidin-3-yl)benzonitrile]	< 10 nM
CCOc1c(C(C)n2cc(C)c3c(N)ncnc32)cc(Cl)c(C#N)c1C1CN(CCO)C1 (centres unmarked) [Example 308, 4-[1-(4-Amino-5-methyl-7H-pyrrolo[2,3-d]pyrimidin-7-yl)ethyl]-6-chloro-3-ethoxy-2-[1-(2-hydroxyethyl)azetidin-3-yl]benzonitrile]	< 10 nM
CCOc1c(C(C)n2ccc(=O)c3c(N)ncnc32)cc(Cl)c(C#N)c1-c1ccc(C(=O)N(C)C)nc1 (racemic) [Example 45, 5-{3-[1-(4-amino-5-oxopyrido[2,3-d]pyrimidin-8(5H)-yl)ethyl]-5-chloro-6-cyano-2-ethoxyphenyl}-N,N-dimethylpyridine-2-carboxamide]	< 10 nM
COc1c(C(C)n2nc(C)c3c(N)ncnc32)cc(Cl)c(C)c1C1CN(C[C@@H](O)C(F)(F)F)C1 (single isomer, unassigned) [Example 115]	< 10 nM
COc1c(C(C)n2nc(C)c3c(N)ncnc32)cc(Cl)c(C)c1C1CN(CC(C)C#N)C1 (centres unmarked) [Example 162, 3-(3-{3-[1-(4-Amino-3-methyl-1H-pyrazolo[3,4-d]pyrimidin-1-yl)ethyl]-5-chloro-2-methoxy-6-methylphenyl}azetidin-1-yl)-2-methylpropanenitrile]	< 10 nM
COc1c(C(C)n2nc(C)c3c(N)ncnc32)cc(C)c(C#N)c1C1CN(CC(C)(C)O)C1 (stereo not drawn) [Example 328, 4-[-1-(4-amino-3-methyl-1H-pyrazolo[3,4-d]pyrimidin-1-yl)ethyl]-2-[l-(2-hydroxy-2-methylpropyl)azetidin-3-yl]-3-methoxy-6-methylbenzonitrile]	< 10 nM
COc1c(C(C)n2nc(C)c3c(N)ncnc32)cc(Cl)c(Cl)c1C1CN(C[C@@H](C)O)C1 (stereo partly drawn) [Example 302, (2R)-1-(3-{3-[1-(4-Amino-3-methyl-1H-pyrazolo[3,4-d]pyrimidin-1-yl)ethyl]-5,6-dichloro-2-methoxyphenyl}azetidin-1-yl)propan-2-ol]	< 10 nM
COc1c(C(C)n2nc(C)c3c(N)ncnc32)cc(Cl)c(C)c1C1CN(CC(C)C)C1 (racemic) [Example 7, 1-{1-[5-Chloro-3-(1-isobutylazetidin-3-yl)-2-methoxy-4-methylphenyl]ethyl}-3-methyl-1H-pyrazolo[3,4-d]pyrimidin-4-amine]	< 10 nM
CCOc1c(C(C)n2nc(C)c3c(N)ncnc32)cc(Cl)c(C#N)c1-c1ccc(-c2nnc(C)o2)nc1 (racemic) [Example 338, 4-[1-(4-amino-3-methyl-1H-pyrazolo[3,4-d]pyrimidin-1-yl)ethyl]-6-chloro-3-ethoxy-2-[6-(5-methyl-1,3,4-oxadiazol-2-yl)pyridin-3-yl]benzonitrile]	< 10 nM
CCOc1c(C(C)n2nc(C)c3c(N)ncnc32)cc(C)c(C#N)c1-c1cnn(C)c1 (racemic) [Example 343, 4-[1-(4-amino-3-methyl-1H-pyrazolo[3,4-d]pyrimidin-1-yl)ethyl]-3-ethoxy-6-methyl-2-(1-methyl-1H-pyrazol-4-yl)benzonitrile]	< 10 nM
CCOc1c(C(C)n2nc(C)c3c(N)ncnc32)cc(Cl)c(C#N)c1-c1cncnc1 (racemic) [Example 329, 4-[1-(4-amino-3-methyl-1H-pyrazolo[3,4-d]pyrimidin-1-yl)ethyl]-6-chloro-3-ethoxy-2-pyrimidin-5-ylbenzonitrile]	< 10 nM
CCOc1c(C(C)n2nc(C)c3c(N)ncnc32)cc(Cl)c(C#N)c1C1CN(C(C)(C)C(N)=O)C1 (single isomer, unassigned) [Example 239, 2-(3-{3-[1-(4-Amino-3-methyl-1H-pyrazolo[3,4-d]pyrimidin-1-yl)ethyl]-5-chloro-6-cyano-2-ethoxyphenyl}azetidin-1-yl)-2-methylpropanamide]	< 10 nM
COc1c(C(C)n2ccc(=O)c3c(N)ncnc32)cc(Cl)c(C)c1-c1cccnc1 (racemic) [Example 28, 4-Amino-8-[1-(5-chloro-2-methoxy-4-methyl-3-pyridin-3-ylphenyl)ethyl]pyrido[2,3-d]pyrimidin-5(8H)-one bis(trifluoroacetate)]	< 10 nM
COc1c(C(C)n2nc(C(F)F)c3c(N)ncnc32)cc(Cl)c(F)c1C1CN(C(C)C)C1 (centres unmarked) [Example 73, 1-{1-[5-Chloro-4-fluoro-3-(1-isopropylazetidin-3-yl)-2-methoxyphenyl]ethyl}-3-(difluoromethyl)-1H-pyrazolo[3,4-d]pyrimidin-4-amine]	< 10 nM
CNC(=O)CCc1c(C)c(Cl)cc(C(C)n2nc(C)c3c(N)ncnc32)c1OC (single isomer, unassigned) [Example 179, 3-(3-(1-(4-Amino-3-methyl-1H-pyrazolo[3,4-d]pyrimidin-1-yl)ethyl)-5-chloro-2-methoxy-6-methylphenyl)-N-methylpropanamide 2,2,2-trifluoroacetate]	< 10 nM
COc1c(C(C)n2nc(C)c3c(N)ncnc32)cc(Cl)c(C)c1-c1ccnc(C(=O)NCCO)c1 (racemic) [Example 18, 4-{3-[1-(4-Amino-3-methyl-1H-pyrazolo[3,4-d]pyrimidin-1-yl)ethyl]-5-chloro-2-methoxy-6-methylphenyl}-N-(2-hydroxyethyl)pyridine-2-carboxamide]	< 10 nM

Continued, values first:

IC50	Compound
> 500 nM	CCOc1c(C(C)n2nc(C)c3c(N)ncnc32)cc(Cl)c(F)c1C1COC(=O)N1 (single isomer, unassigned) [Example 353, 4-{3-[1-(4-amino-3-methyl-1H-pyrazolo[3,4-d]pyrimidin-1-yl)ethyl]-5-chloro-2-ethoxy-6-fluorophenyl}-1,3-oxazolidin-2-one]
< 10 nM	CCOc1c(C(C)n2nc(C)c3c(N)ncnc32)cc(Cl)c(C#N)c1C1CN(CCC(F)(F)F)C1 (single isomer, unassigned) [Example 234, 4-[1-(4-Amino-3-methyl-1H-pyrazolo[3,4-d]pyrimidin-1-yl)ethyl]-6-chloro-3-ethoxy-2-[1-(3,3,3-trifluoropropyl)azetidin-3-yl]benzonitrile]
< 10 nM	COc1c(C(C)n2nc(C)c3c(N)ncnc32)cc(Cl)c(C)c1C1CNC(=O)O1 (centres unmarked) [Example 325, 5-{3-[1-(4-Amino-3-methyl-1H-pyrazolo[3,4-d]pyrimidin-1-yl)ethyl]-5-chloro-2-methoxy-6-methylphenyl}-1,3-oxazolidin-2-one]
< 10 nM	COc1c(C(C)n2nc(C(F)F)c3c(N)ncnc32)cc(Cl)c(F)c1C1CN(CCO)C1 (centres unmarked) [Example 74, 2-[3-(3-{1-[4-Amino-3-(difluoromethyl)-1H-pyrazolo[3,4-d]pyrimidin-1-yl]ethyl}-5-chloro-6-fluoro-2-methoxyphenyl)azetidin-1-yl]ethanol]
< 10 nM	COc1c(C(C)n2nc(C(F)F)c3c(N)ncnc32)cc(C#N)c(C)c1C1CN(CC(C)(C)O)C1 (racemic) [Example 133, 5-{1-[4-Amino-3-(difluoromethyl)-1H-pyrazolo[3,4-d]pyrimidin-1-yl]ethyl}-3-[1-(2-hydroxy-2-methylpropyl)azetidin-3-yl]-4-methoxy-2-methylbenzonitrile]
< 10 nM	CCOc1c(C(C)n2nc(C)c3c(N)ncnc32)cc(Cl)c(C#N)c1C1CN(C(=O)OC(C)C)C1 (single isomer, unassigned) [Example 254, Isopropyl 3-{3-[1-(4-amino-3-methyl-1H-pyrazolo[3,4-d]pyrimidin-1-yl)ethyl]-5-chloro-6-cyano-2-ethoxyphenyl}azetidine-1-carboxylate]
< 10 nM	COc1c(C(C)n2nc(C)c3c(N)ncnc32)cc(Cl)c(C)c1C1CN(C)C1 (racemic) [Example 5, 1-{1-[5-chloro-2-methoxy-4-methyl-3-(1-methylazetidin-3-yl)phenyl]ethyl}-3-methyl-1H-pyrazolo[3,4-d]pyrimidin-4-amine]
< 10 nM	COc1c(C(C)n2nc(C)c3c(N)ncnc32)cc(Cl)c(C)c1-c1cnn(C(C)C(=O)N(C)C)c1 (centres unmarked) [Example 207, 2-(4-(3-(1-(4-amino-3-methyl-1H-pyrazolo[3,4-d]pyrimidin-1-yl)ethyl)-5-chloro-2-methoxy-6-methylphenyl)-1H-pyrazol-1-yl)-N,N-dimethylpropanamide]
< 10 nM	CCOc1c(C(C)n2cc(C)c3c(N)ncnc32)cc(Cl)c(C#N)c1C1CN(C[C@H](C)O)C1 (stereo partly drawn) [Example 309, 4-[1-(4-Amino-5-methyl-7H-pyrrolo[2,3-d]pyrimidin-7-yl)ethyl]-6-chloro-3-ethoxy-2-{1-[(2S)-2-hydroxypropyl]azetidin-3-yl}benzonitrile]
< 10 nM	CCOc1c(C(C)n2nc(-c3cncc(C#N)c3)c3c(N)ncnc32)cc(Cl)c(C)c1-c1ccc(C(=O)N(C)C)nc1 (centres unmarked) [Example 57, 5-(3-{1-[4-amino-3-(5-cyanopyridin-3-yl)-1H-pyrazolo[3,4-d]pyrimidin-1-yl]ethyl}-5-chloro-2-ethoxy-6-methylphenyl)-N,N-dimethylpyridine-2-carboxamide tris(trifluoroacetate)]
< 10 nM	CCOc1c(C(C)n2nc(C)c3c(N)ncnc32)cc(Cl)c(C#N)c1N1CCCC1 (racemic) [Example 318, 4-[1-(4-amino-3-methyl-1H-pyrazolo[3,4-d]pyrimidin-1-yl)ethyl]-6-chloro-3-ethoxy-2-pyrrolidin-1-ylbenzonitrile]
